Data reported in publication PMC6332220, “Synthesis, Characterization and Biological Evaluation of Some Quinoxaline Derivatives: A Promising and Potent New Class of Antitumor and Antimicrobial Agents” (Molecules, 2015).
Converted amounts (≈) assume the structure as drawn.

What was measured:
Escherichia coli [1] = test: Disk diffusion, Escherichia coli; format: cell-based; details: Gram negative, 8.0 mm disks, 10 μL
Experimental: (§1) The disk diffusion method was used for determination of the antimicrobial activity using ampicillin, gentamicin and amphotericin B as reference drugs. The results were recorded for each compounds as the average diameter as inhibition zones (IZ) of bacterial or fungal growth around the discs in mm as shown in Table 2.
(§2) Antimicrobial activities were carried out against highly pathogenic strains; three strains of Gram positive bacteria (Bacillus subtilis, Staphylococcus aureus and Streptococcus faecalis), four strains of Gram negative bacteria (Escherichia coli, Neisseria gonorrhoeae, Pseudomonas aeruginosa and Salmonella typhimurium) and three fungi strains (Aspergillus flavus, Aspergillus fumigatus and Candida albicans) isolated from primary agar plates. Antimicrobial activity of the tested samples was determined using a modified Kriby-Bauer disk diffusion method. Briefly, 100 µL of the test bacteria/fungi were grown in 10 mL of fresh media until they reached a count approximately 10^8 cells/mL for bacteria or 10^5 cells/mL for fungi. 100 µL of microbial suspension was spread onto agar plates corresponding to the broth in which they were maintained. The inoculated plates of bacterial strains were incubated at 35–37 °C for 24–48 h, while the inoculated plates of fungal strains such as A. flavus and A. fumigatus were incubated at 25 °C for 48 h and yeast as C. albicans was incubated at 30 °C for 24–48 h.
(§3) The agar disk diffusion (qualitative) method was used in this investigation for determination of the preliminary antibacterial and antifungal activities. The agar used was Mueller-Hinton agar plates that are rigorously tested for composition and pH. Further the depth of the agar in the plate is a factor to be considered in the disk diffusion method.
(§4) Reference drugs: ampicillin was used as a standard antibacterial drug for Gram positive bacteria, gentamicin as a standard antibacterial drug for Gram negative bacteria and amphotericin B as antifungal standard drug.
(§5) Bacterial and fungal strains were spread onto the surface of the agar plates using sterile cotton swabs. For evaluation of antibacterial activities, blank paper disks (Schleicher & Schuell, Alicante, Spain) with a diameter of 8.0 mm were saturated with 10 μL of tested concentration of the stock solutions. Disks were dried and then placed onto inoculated agar plates. The plates of bacterial strains were reincubated at 35–37 °C for 24–48 h, while the plates of fungal strains such as A. flavus and A. fumigatus were reincubated at 25 °C for 48 h and yeast as C. albicans was reincubated at 30 °C for 24–48 h as mentioned above. […] For an accurate analysis, tests were run in triplicate for each strain to avoid any error as described in Table 2.

Neisseria gonorrhoeae = test: Disk diffusion, Neisseria gonorrhoeae; format: cell-based; details: Gram negative, 8.0 mm disks, 10 μL
Experimental: as §1, §2, §3, §4, §5

Candida albicans = test: Disk diffusion, Candida albicans; format: cell-based; details: Fungi, 8.0 mm disks, 10 μL
Experimental: as §1, §2, §3, §4, §5
(§6) Disk diffusion method for filamentous fungi testing by using approved standard method (M02-A11) developed by the CLSI for evaluating the susceptibilities of filamentous fungi to antifungal agents. Disk diffusion method for yeasts developed by using approved standard method (M44-A2) by the CLSI [44]. Agar-based methods such as disk diffusion can be good alternatives because they are simpler and faster than broth-based methods.

[2] = test system: WI 38 (normal fibroblast cells); test: In vitro cytotoxicity, SRB cell growth assay, normal cells WI 38; format: cell-based, human; details: 48 h exposure, non-cytotoxic = IC50 >100 μg/mL; for IC50: Homo sapiens, WI-38, 48 h
Experimental: (§7) The in vitro cytotoxic activity of the newly synthesized compounds against human breast cell line (MCF7), non-small cell lung cancer NCIH460, CNS cancer SF-268 and WI 38 (normal fibroblast cells) were evaluated using doxorubicin as the reference drug according to the method reported by Skehan et al..
(§8) The newly synthesized compounds were evaluated in vitro against three human cancer cell lines; which are MCF-7 (breast adenocarcinoma), NCI-H460 (non-small cell lung cancer) and SF-268 (CNS cancer), and WI 38 (normal fibroblast cells) were used in this study. MCF-7 was obtained from the European Collection of Cell Cultures (ECACC, Salisbury, UK) but NCI-H460, SF-268 and WI 38 were kindly provided by the National Cancer Institute (NCI, Cairo, Egypt). They grow as monolayer and routinely maintained RPMI-1640 medium supplemented with 5% heat inactivated fetal bovine serum (FBS), 2 mM glutamine and antibiotics (penicillin 100 U/mL, streptomycin 100 µg/mL), at 37 °C in a humidified atmosphere containing 5% CO2. Exponentially growing cells were obtained by plating 1.5 × 10^5 cells/mL for MCF-7 and SF-268, and 0.75 × 10^4 cells/mL for NCI-H460 followed by 24 h of incubation. The effect of the vehicle solvent (DMSO) on the growth of these cell lines was evaluated in all experiments by exposing untreated control cells to the maximum concentration (0.5%) of DMSO used in each assay.
(§9) The effect of compounds on the in vitro growth of human tumor cell lines were evaluated according to the procedure adopted by the National Cancer Institute ([…]) in the “In vitro Anticancer Drug Discovery Screen” that uses the protein-binding dye sulforhodamine B (SRB) to assess cell growth. In the assay protocol, all cells were incubated at 37 °C under humidified atmosphere containing 5% CO2. Briefly, exponentially cells growing in 96-well plates were then exposed for 48 h to five serial concentrations of each compound, starting from a maximum concentration of 150 μg/mL. Following this exposure period adherent cells were fixed, washed and stained. The bound stain was solubilized and the absorbance was measured at 492 nm in a plate reader (Bio-Tek Instruments Inc., Power wave XS, Winston, NC, USA). For each test compound and cell line, a dose response curve was obtained and the inhibitory concentration of 50% (IC50), corresponding to the concentration of the compounds that inhibited 50% of the net cell growth was calculated as described elsewhere. Doxorubicin was used as a positive control and tested in the same manner.

Aspergillus flavus = test: Disk diffusion, Aspergillus flavus; format: cell-based; details: Fungi, 8.0 mm disks, 10 μL
Experimental: as §1, §2, §3, §4, §5, §6

Bacillus subtilis [3] = test: Disk diffusion, Bacillus subtilis; format: cell-based; details: Gram positive, 8.0 mm disks, 10 μL
Experimental: as §1, §2, §3, §4, §5

Staphylococcus aureus [4] = test: Disk diffusion, Staphylococcus aureus; format: cell-based; details: Gram positive, 8.0 mm disks, 10 μL
Experimental: as §1, §2, §3, §4, §5

SF-268 (CNS cancer) = test: In vitro cytotoxicity, SRB cell growth assay, SF-268; details: for IC50: Homo sapiens, SF-268, 48 h, read-out: IC50 (μg/mL) SF-268
Experimental: as §7, §8, §9

[5] = test system: NCI-H460 (non-small cell lung cancer); test: In vitro cytotoxicity, SRB cell growth assay, NCI-H460; details: for IC50: Homo sapiens, NCI-H460, 48 h, read-out: IC50 (μg/mL) NCI-H460
Experimental: as §7, §8, §9

Salmonella typhimurium [6] = test: Disk diffusion, Salmonella typhimurium; format: cell-based; details: Gram negative, 8.0 mm disks, 10 μL
Experimental: as §1, §2, §3, §4, §5

Streptococcus faecalis [7] = test: Disk diffusion, Streptococcus faecalis; format: cell-based; details: Gram positive, 8.0 mm disks, 10 μL
Experimental: as §1, §2, §3, §4, §5

Pseudomonas aeruginosa [8] = test: Disk diffusion, Pseudomonas aeruginosa; format: cell-based; details: Gram negative, 8.0 mm disks, 10 μL
Experimental: as §1, §2, §3, §4, §5

Aspergillus fumigatus = test: Disk diffusion, Aspergillus fumigatus; format: cell-based; details: Fungi, 8.0 mm disks, 10 μL
Experimental: as §1, §2, §3, §4, §5, §6

[9] = test system: MCF-7 (breast adenocarcinoma); test: In vitro cytotoxicity, SRB cell growth assay, MCF-7; details: for IC50: Homo sapiens, MCF7, 48 h, read-out: IC50 (μg/mL) MCF-7
Experimental: as §7, §8, §9

Staphylococcus aureus [10] = test: MIC by broth dilution, Staphylococcus aureus; format: cell-based; details: Gram positive, 0.98-125 µg/mL
Experimental: (§10) In this study, MIC (quantitative method) was used for evaluation of the antimicrobial activity of tested compounds. Screening was evaluated in vitro using the Broth dilution method according to CLSI [45]. All the bacteria were incubated and activated at 30 °C for 24 h inoculation into nutrient broth and the fungi were incubated in malt extract broth for 48 h. The compounds were dissolved in DMSO and then diluted using […] Mueller-Hinton broth. […] In each case triplicate tests were performed and the average was taken as the final reading. The tubes were then inoculated with the test organisms, grown in their suitable broth at 37 °C for 24 h for tested microorganisms (1 × 10^8 CFU/mL for bacteria and 1 × 10^6 CFU/mL of fungi), each 5 mL received 0.1 mL of the above inoculum and incubated at 37 °C for 24 h.

Pseudomonas aeruginosa [11] = test: MIC by broth dilution, Pseudomonas aeruginosa; format: cell-based; details: Gram negative, 0.98-125 µg/mL
Experimental: as §10

Streptococcus faecalis [12] = test: MIC by broth dilution, Streptococcus faecalis; format: cell-based; details: Gram positive, 0.98-125 µg/mL
Experimental: as §10

Salmonella typhimurium [13] = test: MIC by broth dilution, Salmonella typhimurium; format: cell-based; details: Gram negative, 0.98-125 µg/mL
Experimental: as §10

Escherichia coli [14] = test: MIC by broth dilution, Escherichia coli; format: cell-based; details: Gram negative, 0.98-125 µg/mL
Experimental: as §10

Bacillus subtilis [15] = test: MIC by broth dilution, Bacillus subtilis; format: cell-based; details: Gram positive, 0.98-125 µg/mL
Experimental: as §10

| Compound | Inhibition Zone Diameter (IZ) (mm) Escherichia coli (Escherichia coli [1]) [mm] | Inhibition Zone Diameter (IZ) (mm) Neisseria gonorrhoeae (Neisseria gonorrhoeae) | Inhibition Zone Diameter (IZ) (mm) Candida albicans (Candida albicans) | IC50 [2] [µg/mL] | Inhibition Zone Diameter (IZ) (mm) Aspergillus flavus (Aspergillus flavus) | Inhibition Zone Diameter (IZ) (mm) Bacillus subtilis (Bacillus subtilis [3]) [mm] | melting point [°C] | Inhibition Zone Diameter (IZ) (mm) Staphylococcus aureus (Staphylococcus aureus [4]) [mm] | IC50 (SF-268 (CNS cancer)) [µg/mL] | IC50 [5] [µg/mL] | Inhibition Zone Diameter (IZ) (mm) Salmonella typhimurium (Salmonella typhimurium [6]) [mm] | Inhibition Zone Diameter (IZ) (mm) Streptococcus faecalis (Streptococcus faecalis [7]) [mm] | Inhibition Zone Diameter (IZ) (mm) Pseudomonas aeruginosa (Pseudomonas aeruginosa [8]) [mm] | Inhibition Zone Diameter (IZ) (mm) Aspergillus fumigatus (Aspergillus fumigatus) | IC50 [9] [µg/mL] | further results |
| --- | --- | --- | --- | --- | --- | --- | --- | --- | --- | --- | --- | --- | --- | --- | --- | --- |
| Clc1ccc(C=NNc2nc3cc(Br)ccc3nc2Cl)cc1 [Compound 8, 6-Bromo-2-chloro-3-[2-(4-chlorobenzylidene)hydrazinyl]quinoxaline] | 11 | 9 mm | R (R (IZ = 0 mm)) | 10.6 ± 5.51 (≈ 26.7 µM) | R (R (IZ = 0 mm)) | 9 | 187 to 189 | 9 | 35.3 ± 12.8 (≈ 89.2 µM) | 26.6 ± 2.63 (≈ 67.2 µM) | 7 | 10 | 9 | R (R (IZ = 0 mm)) | 42.2 ± 2.46 (≈ 106 µM) |  |
| NNc1nc2ccc(Br)cc2n2nnnc12 [Compound 10] |  |  |  |  |  |  |  |  |  |  |  |  |  |  |  | MIC (Staphylococcus aureus [10]; Staphylococcus aureus, 24 h, read-out: Minimum Inhibitory Concentration (MIC) (µg/mL) Staphylococcus aureus): 0.98 µg/mL (≈ 3.5 µM); MIC (Pseudomonas aeruginosa [11]; Pseudomonas aeruginosa, 24 h, read-out: Minimum Inhibitory Concentration (MIC) (µg/mL) Pseudomonas aeruginosa): 125 µg/mL (≈ 446 µM); MIC (Streptococcus faecalis [12]; Enterococcus faecalis, 24 h, read-out: Minimum Inhibitory Concentration (MIC) (µg/mL) Streptococcus faecalis): 0.98 µg/mL (≈ 3.5 µM); MIC (Salmonella typhimurium [13]; Salmonella enterica, TYPHIMURIUM, 24 h, read-out: Minimum Inhibitory Concentration (MIC) (µg/mL) Salmonella typhimurium): 1.95 µg/mL (≈ 6.96 µM); MIC (Escherichia coli [14]; Escherichia coli, 24 h, read-out: Minimum Inhibitory Concentration (MIC) (µg/mL) Escherichia coli): 3.9 µg/mL (≈ 13.9 µM); MIC (Bacillus subtilis [15]; Bacillus subtilis, 24 h, read-out: Minimum Inhibitory Concentration (MIC) (µg/mL) Bacillus subtilis): 0.98 µg/mL (≈ 3.5 µM) |
| CC1=NN(c2nc3ccc(Br)cc3nc2N2N=C(C)CC2=O)C(=O)C1 [Compound 17, 6-Bromo-2,3-bis(3-methyl-1H-pyrazol-5(4H)-one)quinoxaline] | 11 | 6 mm | R (R (IZ = 0 mm)) | 21.4 ± 2.02 (≈ 53.3 µM) | R (R (IZ = 0 mm)) | 7 | 152 to 154 | 8 | 21.3 ± 2.12 (≈ 53.2 µM) | 15.81 ± 0.1 (≈ 39.4 µM) | 5 | 10 | 8 | R (R (IZ = 0 mm)) | 21.23 ± 0.14 (≈ 52.9 µM) |  |
| 9-Bromo-di-1,2,4-triazolo[1,5-a:5′,1′-c]quinoxaline [Compound 13] | 17 | R (R (IZ = 0 mm)) | R (R (IZ = 0 mm)) |  | R (R (IZ = 0 mm)) | 17 |  | 16 |  |  | 17 | 20 | 19 | R (R (IZ = 0 mm)) |  | Minimum Inhibitory Concentration (MIC) (µg/mL) Staphylococcus aureus (Staphylococcus aureus [10]): 7.81 µg/mL; Minimum Inhibitory Concentration (MIC) (µg/mL) Pseudomonas aeruginosa (Pseudomonas aeruginosa [11]): 125 µg/mL; IC50 (μg/mL) WI 38 [2]: 18.62 ± 1.21 µg/mL; IC50 (μg/mL) SF-268 (SF-268 (CNS cancer); SF-268, SRB, 48 h exposure): 29.35 ± 7.01 µg/mL; IC50 (μg/mL) NCI-H460 ([5]; NCI-H460, SRB, 48 h exposure): 36.05 ± 5.23 µg/mL; Minimum Inhibitory Concentration (MIC) (µg/mL) Streptococcus faecalis (Streptococcus faecalis [12]): 62.5 µg/mL; Minimum Inhibitory Concentration (MIC) (µg/mL) Salmonella typhimurium (Salmonella typhimurium [13]): 3.9 µg/mL; Minimum Inhibitory Concentration (MIC) (µg/mL) Escherichia coli (Escherichia coli [14]): 7.81 µg/mL; IC50 (μg/mL) MCF-7 ([9]; MCF-7, SRB, 48 h exposure): 37.64 ± 6.72 µg/mL; Minimum Inhibitory Concentration (MIC) (µg/mL) Bacillus subtilis (Bacillus subtilis [15]): 1.95 µg/mL |
